# According to article PMC9851200, “Multiparameter phenotypic screening for endogenous TFEB and TFE3 translocation identifies novel chemical series modulating lysosome function” (Autophagy, 2022):
# “Also recorded” adds a separate entry of the source. Read-outs that look alike come from different tables or passages of the source.
# Tests used:
# endogenous TFEB = test: TFEB nuclear translocation, immunocytochemistry high-content imaging; assay type: cell-based; conditions: for TFEB %: PKIS2 primary screening
# endogenous TFE3 = test: TFE3 nuclear translocation, immunocytochemistry high-content imaging; assay type: cell-based; conditions: for TFE3 %: PKIS2 primary screening; for Best-Fit Values Span: TFE3 assay concentration response; for Best-Fit Values Span / EC50: 24 h; for EC50: TFE3 assay, read-out: Best-Fit Values EC50 (converted); for Summary: activity in TFE3 assays compared with original NK-140, OT activity
# SH-SY5Y cells [1] = system: SH-SY5Y cells
# Excerpt: The PKIS2 Library was supplied by The Structural Genomics Consortium at the University of North Carolina at Chapel Hill.
# SH-SY5Y cells [2] = test: AK (adenylate kinase) release ToxiLight cytotoxicity assay; conditions: for AK: PKIS2 primary screening; for Cellular toxicity (AK release and nuclear count, in words): SH-SY5Y, 24 h treatment
# Description: Total cell lysis with 5 µL 5% Triton-X 100 (Sigma-Aldrich, T8787) is used as a positive control for the assay and toxicity is expressed as a percentage of luminescence under DMSO conditions.
# SH-SY5Y cells [3] = test: Nuclear count from microscopy images (cellular growth and toxicity); conditions: PKIS2 primary screening
# [4] = PKIS2 primary screening, DQ Red BSA intensity
# [5] = PKIS2 primary screening, DQ Red BSA spot count
# [6] = SH-SY5Y, concentration-dependent
SMILES,TFEB % (endogenous TFEB),TFE3 % (endogenous TFE3),DQ Intensity (SH-SY5Y cells [1]; PKIS2 primary screening),DQ Spot (SH-SY5Y cells [1]; PKIS2 primary screening),AK (SH-SY5Y cells [2]),Nuclear Count (SH-SY5Y cells [3]),DQ Intensity (SH-SY5Y cells [1]; [4]),DQ Spot (SH-SY5Y cells [1]; [5]),also measured
Cc1n[nH]c2ccc(-c3cc(OC[C@@H](N)Cc4ccccc4)cnc3-c3ccoc3)cc12.O=C(O)C(F)(F)F.O=C(O)C(F)(F)F [UNC10225447A],5.41%,18.99%,66.58,65.23,97.39,74.49,–,–,–
Cl.Cl.NCC(NCc1ccc(-c2ccnc3[nH]ccc23)s1)c1ccccc1 (stereo not drawn) [UNC10225471A],4.03%,13.41%,–,–,98.53,123.37,100.58,94.95,–
Cn1cncc1C(=O)NC1CCN(c2ccnc(Nc3ccc(F)cc3)n2)C1 (stereo not drawn) [GSK1379717],3.86%,10.47%,–,–,113.98,85.90,84.19,97.80,–
C[C@@H](Oc1cc(-n2cnc3ccc(-c4ccncc4)cc32)sc1C(N)=O)c1ccccc1Cl [UNC10225348A],10.36%,36.52%,133.73,158.98,91.16,41.11,–,–,–
CN(C(=O)c1ccc(-c2cc(-c3c[nH]nc3-c3ccccn3)ccn2)cc1)C1CCOCC1 [UNC10225473A],8.39%,13.07%,–,–,101.87,84.56,126.52,117.08,–
C[C@@H](Oc1cc(-n2cnc3cc(-c4ccnc(NCCS(C)(=O)=O)c4)ccc32)sc1C(N)=O)c1ccccc1Cl [UNC10225234A],11.46%,12.54%,121.28,93.41,97.61,68.66,–,–,–
Cc1cccc(Nc2nc(NCCN)ncc2C(N)=O)c1 [UNC10225029A],4.35%,9.09%,100.58,100.70,118.19,111.31,–,–,–
CN1CCC(n2cnc(-c3ccc(F)cc3)c2-c2ccnc(NC3CCNCC3)n2)CC1 [UNC10225443A],5.73%,14.45%,104.65,93.05,75.10,105.97,–,–,–
Cc1cccc2c(-c3ccncn3)c(-c3ccc(F)cc3)nn12 [UNC10225097A],5.54%,7.36%,92.70,100.21,80.54,79.09,–,–,–
COc1ccc(NC(=O)Nc2ccc(C)c(-c3ccc(C(=O)Nc4ccncc4)cc3)c2)cc1 [UNC10225445A],6.73%,17.87%,64.07,80.56,81.64,96.32,–,–,–
Cc1nn2c(=O)cc(N3CCOCC3)nc2n1Cc1cccc(Cl)c1Cl [UNC10225178A],7.97%,28.29%,66.02,117.74,116.91,93.42,–,–,–
OCCCNc1nccc(-c2c(-c3cccc(C(F)(F)F)c3)nn3cc(C(F)(F)F)ccc23)n1 [UNC10225352A],4.95%,11.93%,93.14,97.34,111.75,112.73,–,–,–
O=C(Nc1n[nH]c2cc(-c3cccc(F)c3F)ccc12)C1CC1 [SB-733894],5.04%,15.11%,–,–,80.72,112.33,66.38,85.29,–
NC(=O)c1cc(-c2ccccc2)cc2c(C3CCNCC3)c[nH]c12 [UNC10225015A],3.89%,15.20%,84.06,101.36,102.13,93.78,–,–,–
CC(C)Nc1cc(-c2ccc3c(N)n[nH]c3c2)nc(N)n1 [GSK2221681],4.14%,7.71%,–,–,98.58,122.37,78.82,81.03,–
COc1ccc(Nc2nccc(N3CCC(NC(=O)Nc4ccc5c(c4)OCO5)C3)n2)cc1 (stereo not drawn) [GSK1379745],10.83%,19.51%,–,–,76.28,86.22,69.10,77.91,–
Cc1c2ccc(N(C)c3ccnc(Nc4cccc(S(N)(=O)=O)c4)n3)cc2nn1Cc1ccccc1 [GW787226],8.93%,15.06%,–,–,80.53,121.46,91.24,90.69,–
CC(C)c1nc(-c2cccc(NS(=O)(=O)c3ccccc3)c2)c(-c2ccnc(Nc3ccc4c(c3)CN(C)CC4)n2)s1 [UNC10225068A],–,63.29%,3.98,39.66,114.97,76.87,–,–,–
"O=C(Nc1ccc(CN2CCOCC2)cc1)c1ccc(-c2cccc(Cl)c2)o1 [CID2011756, reference compound]",–,–,–,–,–,–,–,–,"TFEB translocation (in words) (endogenous TFEB): some TFEB and TFE3 translocation only at 20 µM; also recorded: induced TFEB and TFE3 translocation only alongside marked lysosomal and cellular toxicity at 20 µM; TFE3 translocation (in words) (endogenous TFE3): some TFEB and TFE3 translocation only at 20 µM; also recorded: induced TFEB and TFE3 translocation only alongside marked lysosomal and cellular toxicity at 20 µM; DQ Red BSA signal (in words) (SH-SY5Y cells [1]): some reduction of DQ Red BSA signal; Lysosomal toxicity (in words) (SH-SY5Y cells [1]; human): marked lysosomal and cellular toxicity at 20 µM; Cellular toxicity (AK release and nuclear count, in words) (SH-SY5Y cells [2]): marked lysosomal and cellular toxicity at 20 µM"
Cc1cccc(-c2nc(Nc3ccc4ncn(C)c4c3)c3ccccc3n2)n1 [NK173],–,–,–,–,–,–,–,–,"Best-Fit Values Span (endogenous TFE3; SH-SY5Y): 80.89; EC50 (endogenous TFE3; SH-SY5Y, second EC50 of biphasic/bell-shaped fit or OT (off-target) activity, unit inferred): 1.92 µM; Summary (endogenous TFE3): Only OT activity"
"O=C1NCCCc2c1oc1ccc(O)cc21 [CID755673, reference compound]",–,–,–,–,–,–,–,–,"TFEB translocation (in words) (endogenous TFEB): no TFEB and TFE3 translocation; also recorded: no effect across these assays; TFE3 translocation (in words) (endogenous TFE3): no TFEB and TFE3 translocation; also recorded: no effect across these assays; DQ Red BSA signal (in words) (SH-SY5Y cells [1]): no TFEB and TFE3 translocation, alteration in DQ Red BSA signal or toxicity; also recorded: no effect across these assays; Cellular toxicity (AK release and nuclear count, in words) (SH-SY5Y cells [2]): no TFEB and TFE3 translocation, alteration in DQ Red BSA signal or toxicity; also recorded: no effect across these assays"
"CCN(CC)CCCC(C)Nc1ccnc2cc(Cl)ccc12 (stereo not drawn) [chloroquine, reference compound]",–,–,–,–,–,–,–,–,"TFEB translocation from the cytoplasm to the nucleus (% nTFEB) (endogenous TFEB; [6]): > 80%; TFE3 translocation from the cytoplasm to the nucleus (% nTFE3) (endogenous TFE3; [6]): > 80%; DQ Red BSA signal (in words) (SH-SY5Y cells [1]; SH-SY5Y, 24 h treatment): greatly reduced; DQ Red BSA spot count / active lysosome count (in words) (SH-SY5Y cells [1]; SH-SY5Y, 24 h treatment): reduces"
Cc1cccc(-c2nc(Nc3ccc4[nH]ccc4c3)c3ccccc3n2)n1 [NK218],–,–,–,–,–,–,–,–,"Best-Fit Values Span (endogenous TFE3; SH-SY5Y): 20.78; EC50 (endogenous TFE3; SH-SY5Y, µM): 0.42 µM; Summary (endogenous TFE3): More Potent"
C[C@@H](Oc1cc(-n2cnc3cc(-c4cnn(C)c4)ccc32)sc1C(N)=O)c1ccccc1Cl [UNC10225416A],18.53%,8.07%,–,–,104.83,–,–,–,DQ Intensity (SH-SY5Y cells [1]): 219.18; DQ Spot (SH-SY5Y cells [1]): 124.35
"CC(=O)Nc1ccc(C(=O)Nc2ccccc2N)cc1 [CI-994, Tacedinaline, reference compound]",–,–,–,–,–,–,–,–,"DQ Red BSA signal (in words) (SH-SY5Y cells [1]; SH-SY5Y, 24 h treatment): robustly increase DQ Red BSA puncta signal; DQ Red BSA spot count / active lysosome count (in words) (SH-SY5Y cells [1]; SH-SY5Y, 24 h treatment): increases"
Cc1cnc(N)c(/C=C/c2cncc(C(=O)NCCc3ccc(Cl)cc3Cl)c2)c1.Cl [UNC10225238A],–,–,–,–,–,–,95.52,99.30,–
